Paper PMC11576293, “New series of 4,6-diaryl pyrimidines: facile synthesis and antiproliferative activity as dual EGFR/VEGFR-2 inhibitors” (Frontiers in Chemistry, 2024)

How the values were obtained:
[1] = test system: four cancer cell lines (A-549, MCF-7, Panc-1, HT-29); assay: Antiproliferative assay, average over four cancer cell lines; assay type: cell-based; details: Homo sapiens; average of the four cancer cell lines; read-out: Average IC50 (GI50)
Excerpt: Table 2 presents the four cancer cell lines’ median inhibitory concentration (IC50) and GI50 (average IC50) values.
(§1) The IC50 values were derived from dose-response tests. The reported data are derived from at least two independent studies, each comprising three replicates per concentration. See Supplementary Material A1 for more details.

SF-295 = assay: NCI-60 single-dose screen; assay type: cell-based; details: Homo sapiens, single dose 10 µM, '-' = no inhibition, read-out: % Growth Inhibition
Description: (§2) The National Cancer Institute’s Developmental Therapeutic Program (www.dtp.nci.nih.gov) has tested compounds 9–29 (except compounds 21 and 22) against 60 cancer cell lines from nine types (leukemia, lung, colon, CNS, melanoma, ovarian, renal, prostate, and breast cancer) at a single dose (10 μM) ([El-Sherief et al., 2018]). […] The most sensitive cells included leukemia (SR, K-562, and MOLT-4), lung (NCI-H522, […], and EKVX), breast (MCF-7 and T-47D), colon (HCT-15 and HT-29), and ovarian (NCI/ADR-RES).
(§3) The National Cancer Institute’s Developmental Therapeutic Program (www.dtp.nci.nih.gov) evaluated compounds 9–29 (excluding 21 and 22) against 60 cancer cell lines from nine categories (leukemia, lung, colon, CNS, melanoma, ovarian, renal, prostate, and breast cancer) at a single dose (10 μM) ([El-Sherief et al., 2018]). See Supplementary Material A1 for more details.

MOLT-4 = assay: NCI-60 single-dose screen; assay type: cell-based; details: Homo sapiens, single dose 10 µM, '-' = no inhibition, read-out: % Growth Inhibition
Description: as §2, §3

CCRF-CEM = assay: NCI-60 single-dose screen; assay type: cell-based; details: Homo sapiens, single dose 10 µM, '-' = no inhibition, read-out: % Growth Inhibition
Description: as §2, §3

HT29 = assay: NCI-60 single-dose screen; assay type: cell-based; details: Homo sapiens, HT-29, single dose 10 µM, '-' = no inhibition, read-out: % Growth Inhibition
Description: as §2, §3

HT-29 = assay: Antiproliferative assay (MTT); assay type: cell-based; details: Homo sapiens, HT-29 (colon), read-out: Antiproliferative activity IC50 ± SEM, HT-29
Excerpt: (§4) The MTT test was employed for this investigation ([Hisham et al., 2022]; [El-Sherief et al., 2019]; [Ramadan et al., 2020]). Table 2 presents the four cancer cell lines’ median inhibitory concentration (IC50) and GI50 (average IC50) values.
as §1, with “The MTT test was employed for this investigation ([Hisham et al., 2022]; [El-Sherief et al., 2019]; [Ramadan et al., 2020]). The IC50” for “The IC50”
(§5) (in 0.1% DMSO) were added (in 200 μL medium to yield a final concentration of 0.1% v/v) to the wells of plates. A single compound was designated with four wells followed by incubation of plates for 96h at 37°C. After incubation, medium was removed completely from the plates followed by addition of MTT (0.4 mg/mL in medium) to each well and subsequent incubation of plates for 3h. MTT (along with the medium) was removed and DMSO (150μL) was added to each well of the culture plates, followed by vertexing and subsequent measurement of absorbance (at 540 nm) using microplate reader. The data are shown as percentage inhibition of proliferation in comparison with controls containing 0.1% DMSO.
(§6) 4.2.1.2. Assay for antiproliferative effect […]
(§7) (10%) and 1 µg/mL each of aprotinin, leupeptin and pepstatin for 120 min. The purification was performed either at 4 °C or on ice. To record autophosphorylation level, EGFR kinase assay was carried out on the basis of DELFIA/Time-Resolved Fluorometry. The compounds were first
(§8) (1 picture or pasted object on this page, not shown here)

MCF-7 = assay: Antiproliferative assay (MTT); assay type: cell-based; details: Homo sapiens, MCF7, MCF-7 (breast), read-out: Antiproliferative activity IC50 ± SEM, MCF-7
Excerpt: as §4
as §1, with “The MTT test was employed for this investigation ([Hisham et al., 2022]; [El-Sherief et al., 2019]; [Ramadan et al., 2020]). The IC50” for “The IC50”
as §5, §6, §7, §8

Panc-1 = assay: Antiproliferative assay (MTT); assay type: cell-based; details: Homo sapiens, Panc-1 (pancreatic), read-out: Antiproliferative activity IC50 ± SEM, Panc-1
Excerpt: as §4
as §1, with “The MTT test was employed for this investigation ([Hisham et al., 2022]; [El-Sherief et al., 2019]; [Ramadan et al., 2020]). The IC50” for “The IC50”
as §5, §6, §7, §8

A-549 = assay: Antiproliferative assay (MTT); assay type: cell-based; details: Homo sapiens, A549, A-549 (lung), read-out: Antiproliferative activity IC50 ± SEM, A-549
Excerpt: as §4
as §1, with “The MTT test was employed for this investigation ([Hisham et al., 2022]; [El-Sherief et al., 2019]; [Ramadan et al., 2020]). The IC50” for “The IC50”
as §5, §6, §7, §8

[2] = Cell viability assay (MTT) on normal cells; assay type: cell-based; details: human, MCF-10A normal mammary gland epithelial cells, 4 days incubation
Description: (§9) This experiment examines the impact of the newly developed compounds 9–29 on normal cell lines to assess their safety level. The vitality of the investigated compounds was assessed using the MCF-10 A cell line, a normal human mammary gland epithelial cell line. Following 4 days of incubation on MCF-10 A cells with each examined compound at a concentration of 50 μM, the vitality of the cells was assessed using the MTT test ([Mahmoud et al., 2022]; [Mekheimer et al., 2022]).
as §9, with “The viability” for “The vitality”, “of 9–29” for “of the investigated compounds”, “2022]). Refer to Supplementary Material A1 for more details. […]” for “2022]).”
4.2. Biological evaluation
4.2.1. Cytotoxic activity using MTT Assay and evaluation of IC50
MTT assay was carried out to study the effect of compounds on mammary epithelial cells (MCF-10A). The medium in which cells were propagated contained Dulbecco's modified Eagle's medium (DMEM)/ Ham's F-12 medium (1:1) supplemented with epidermal growth factor (20 ng/mL), hydrocortisone (500 ng/mL), insulin (10 μg/mL), 2 mM glutamine and 10% foetal calf serum.
as §5, with “After every 2-3 days, the cells were passaged using trypsin ethylenediamine tetra acetic acid (EDTA). The cells were seeded at a density of 10^4 cells mL-1 in flat-bottomed culture plates containing 96 wells each. After 24 h, medium was removed from the plates and the compounds in (in 0.1%” for “(in 0.1%”, “0.1% DMSO. […]” for “0.1% DMSO.”

SMILES | melting point | IC50 [1] | inhibition at 10 µM (SF-295) | inhibition at 10 µM (MOLT-4) | inhibition at 10 µM (CCRF-CEM) | inhibition at 10 µM (HT29) | IC50 (HT-29) | IC50 (MCF-7) | IC50 (Panc-1) | IC50 (A-549) | viability at 4 days, 50 µM [2]
COc1ccc(-c2cc(-c3cccc(OC)c3)nc(SC(C)C)n2)cc1 [Compound 19, 2-(Isopropylthio)-6-(3-methoxyphenyl)-4-(4-methoxyphenyl)pyrimidine] | 235 to 237 °C | 0.03 µM | 4.16% | 23.8% | 9.07% | 32.5% | 0.03 ± 0.002 µM | 0.032 ± 0.003 µM | 0.03 ± 0.002 µM | 0.029 ± 0.002 µM | 90%
C=CCSc1nc(-c2ccc(OC)cc2)cc(-c2cccc(OC)c2)n1 [Compound 20, 2-(Allylthio)-6-(3-methoxyphenyl)-4-(4-methoxyphenyl)pyrimidine] | 258 to 260 °C | 0.071 µM | 3.19% | 12.5% | 3.61% | 8.08% | 0.072 ± 0.004 µM | 0.073 ± 0.006 µM | 0.07 ± 0.006 µM | 0.07 ± 0.006 µM | 90%
COc1ccc(-c2cc(-c3ccc(Cl)cc3)nc(SC)n2)cc1OC [Compound 23, 4-(4-Chlorophenyl)-6-(3,4-dimethoxyphenyl)-2-(methylthio)pyrimidine] | 228 to 229 °C | 0.048 µM | 12.4% | 26.7% | 17.9% | 26.4% | 0.048 ± 0.004 µM | 0.05 ± 0.004 µM | 0.047 ± 0.004 µM | 0.048 ± 0.004 µM | 90%
CCSc1nc(-c2ccc(Cl)cc2)cc(-c2ccc(OC)c(OC)c2)n1 [Compound 24, 4-(4-Chlorophenyl)-2-(ethylthio)-6-(3,4-dimethoxyphenyl)pyrimidine] | 229 to 231 °C | 0.031 µM | 7.88% | 37% | 19.3% | 28.3% | 0.031 ± 0.003 µM | 0.033 ± 0.003 µM | 0.03 ± 0.003 µM | 0.03 ± 0.003 µM | 91%
CCCSc1nc(-c2ccc(Cl)cc2)cc(-c2ccc(OC)c(OC)c2)n1 [Compound 25, 4-(4-Chlorophenyl)-6-(3,4-dimethoxyphenyl)-2-(propylthio)pyrimidine] | 217 to 219 °C | 0.033 µM | 5.66% | 19.1% | 11.2% | 14.7% | 0.032 ± 0.003 µM | 0.034 ± 0.003 µM | 0.032 ± 0.003 µM | 0.032 ± 0.003 µM | 91%
COc1ccc(-c2cc(-c3ccc(Cl)cc3)nc(SC(C)C)n2)cc1OC [Compound 26, 4-(4-Chlorophenyl)-2-(isopropylthio)-6-(3,4-dimethoxyphenyl)pyrimidine] | 233 to 253 °C | 0.041 µM | < 0% | 5.51% | 1.08% | 13.1% | 0.042 ± 0.003 µM | 0.042 ± 0.003 µM | 0.04 ± 0.003 µM | 0.04 ± 0.003 µM | 90%
C=CCSc1nc(-c2ccc(Cl)cc2)cc(-c2ccc(OC)c(OC)c2)n1 [Compound 27, 2-(Allylthio)-4-(4-chlorophenyl)-6-(3,4-dimethoxyphenyl)pyrimidine] | 244 to 246 °C | 0.059 µM | 3% | 28.5% | 13.1% | 22.6% | 0.06 ± 0.006 µM | 0.06 ± 0.006 µM | 0.058 ± 0.005 µM | 0.056 ± 0.005 µM | 89%
COc1ccc(-c2cc(-c3ccc(Cl)cc3)nc(SCc3ccccc3)n2)cc1OC [Compound 28, 2-(Benzylthio)-4-(4-chlorophenyl)-6-(3,4-dimethoxyphenyl)pyrimidine] | 239 to 241 °C | 0.041 µM | 7.84% | 32.8% | 17.4% | 18.7% | 0.041 ± 0.003 µM | 0.043 ± 0.003 µM | 0.04 ± 0.003 µM | 0.039 ± 0.003 µM | 92%
COc1ccc(CSc2nc(-c3ccc(Cl)cc3)cc(-c3ccc(OC)c(OC)c3)n2)cc1 [Compound 29, 2-(4-Methoxybenzylthio)-4-(4-chlorophenyl)-6-(3,4-dimethoxyphenyl)pyrimidine] | 279 to 281 °C | 0.024 µM | 16.7% | 46.5% | 14.2% | 38% | 0.024 ± 0.002 µM | 0.025 ± 0.002 µM | 0.023 ± 0.002 µM | 0.023 ± 0.002 µM | 91%
